For experiment [1], the target named is Serine/threonine-protein kinase MRCK beta (Homo sapiens, UniProt Q9Y5S2).
The target in experiment [2] is Dual specificity protein kinase CLK1 (Homo sapiens, UniProt P49759).
For experiment [3], the target named is Casein kinase II subunit alpha' (Homo sapiens, UniProt P19784).
Experiment [4] has as its target T1, Probable ATP-dependent RNA helicase DDX6 (Homo sapiens, UniProt P26196).
T1 sequence (P26196 whole entry): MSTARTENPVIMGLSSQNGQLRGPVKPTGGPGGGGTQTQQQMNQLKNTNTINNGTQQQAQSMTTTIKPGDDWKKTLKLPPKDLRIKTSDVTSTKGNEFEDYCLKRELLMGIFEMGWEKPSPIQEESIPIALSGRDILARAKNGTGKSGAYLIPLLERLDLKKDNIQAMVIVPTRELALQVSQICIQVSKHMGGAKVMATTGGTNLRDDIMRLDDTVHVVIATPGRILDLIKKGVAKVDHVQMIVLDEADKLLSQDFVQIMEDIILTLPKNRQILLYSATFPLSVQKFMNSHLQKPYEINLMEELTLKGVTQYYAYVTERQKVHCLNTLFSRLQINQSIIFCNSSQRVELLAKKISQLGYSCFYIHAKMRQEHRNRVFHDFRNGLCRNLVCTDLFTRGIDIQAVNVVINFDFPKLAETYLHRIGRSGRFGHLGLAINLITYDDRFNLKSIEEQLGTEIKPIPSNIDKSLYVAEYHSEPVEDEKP

The target of the next experiment is Ephrin type-A receptor 7 (Homo sapiens, UniProt Q15375).
For experiment [5], the target named is Mitogen-activated protein kinase kinase kinase 4 (Homo sapiens, UniProt Q9Y6R4).
Chain of Mitogen-activated protein kinase kinase kinase 4 (Q9Y6R4 whole entry): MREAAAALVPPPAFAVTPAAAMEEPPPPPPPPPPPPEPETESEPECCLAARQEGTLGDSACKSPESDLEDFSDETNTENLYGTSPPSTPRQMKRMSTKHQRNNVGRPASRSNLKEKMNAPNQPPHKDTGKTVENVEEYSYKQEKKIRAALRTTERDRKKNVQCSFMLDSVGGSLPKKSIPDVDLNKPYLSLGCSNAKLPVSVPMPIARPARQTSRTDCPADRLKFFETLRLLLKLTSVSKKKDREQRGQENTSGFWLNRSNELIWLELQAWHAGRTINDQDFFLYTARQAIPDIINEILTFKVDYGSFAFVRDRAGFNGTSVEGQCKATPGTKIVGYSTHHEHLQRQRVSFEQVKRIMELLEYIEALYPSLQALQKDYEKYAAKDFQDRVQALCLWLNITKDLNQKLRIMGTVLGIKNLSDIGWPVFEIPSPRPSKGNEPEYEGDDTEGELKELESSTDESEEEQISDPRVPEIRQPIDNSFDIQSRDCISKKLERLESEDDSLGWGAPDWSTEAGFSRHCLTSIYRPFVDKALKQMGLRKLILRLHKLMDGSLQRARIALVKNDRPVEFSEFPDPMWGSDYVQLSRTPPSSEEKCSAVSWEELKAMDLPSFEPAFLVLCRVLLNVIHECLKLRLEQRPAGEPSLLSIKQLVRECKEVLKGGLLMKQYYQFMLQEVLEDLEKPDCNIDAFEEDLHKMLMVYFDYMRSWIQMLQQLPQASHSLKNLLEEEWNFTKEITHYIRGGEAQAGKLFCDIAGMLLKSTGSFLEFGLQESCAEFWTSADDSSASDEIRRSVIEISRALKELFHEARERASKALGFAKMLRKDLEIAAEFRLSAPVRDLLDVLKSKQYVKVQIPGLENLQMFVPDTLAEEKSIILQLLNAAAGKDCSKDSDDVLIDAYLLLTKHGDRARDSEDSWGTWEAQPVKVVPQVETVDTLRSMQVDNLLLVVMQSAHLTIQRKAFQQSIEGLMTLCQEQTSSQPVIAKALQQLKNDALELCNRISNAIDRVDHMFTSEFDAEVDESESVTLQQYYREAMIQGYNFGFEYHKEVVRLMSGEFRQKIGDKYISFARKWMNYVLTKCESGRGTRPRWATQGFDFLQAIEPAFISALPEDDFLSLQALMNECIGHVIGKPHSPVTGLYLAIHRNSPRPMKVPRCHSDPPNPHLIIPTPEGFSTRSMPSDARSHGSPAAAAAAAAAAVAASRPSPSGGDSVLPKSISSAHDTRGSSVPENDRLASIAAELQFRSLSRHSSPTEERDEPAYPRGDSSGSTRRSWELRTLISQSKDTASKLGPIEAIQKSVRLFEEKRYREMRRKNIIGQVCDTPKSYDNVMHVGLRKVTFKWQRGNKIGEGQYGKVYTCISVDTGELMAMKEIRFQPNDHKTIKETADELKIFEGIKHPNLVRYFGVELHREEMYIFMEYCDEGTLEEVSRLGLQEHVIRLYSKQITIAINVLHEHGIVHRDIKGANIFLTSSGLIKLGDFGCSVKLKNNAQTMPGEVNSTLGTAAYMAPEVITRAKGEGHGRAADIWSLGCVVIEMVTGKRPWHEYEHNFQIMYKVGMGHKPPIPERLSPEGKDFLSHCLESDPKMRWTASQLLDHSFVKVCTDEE
Experiment [6] concerns the target Protein kinase C beta type (Homo sapiens, UniProt P05771).
For experiment [7], the target named is Protein-tyrosine kinase 2-beta (Homo sapiens, UniProt Q14289).
Experiment [8] deals with Ribosomal protein S6 kinase alpha-5 (Homo sapiens, UniProt O75582).
Chain of Ribosomal protein S6 kinase alpha-5 (O75582 whole entry): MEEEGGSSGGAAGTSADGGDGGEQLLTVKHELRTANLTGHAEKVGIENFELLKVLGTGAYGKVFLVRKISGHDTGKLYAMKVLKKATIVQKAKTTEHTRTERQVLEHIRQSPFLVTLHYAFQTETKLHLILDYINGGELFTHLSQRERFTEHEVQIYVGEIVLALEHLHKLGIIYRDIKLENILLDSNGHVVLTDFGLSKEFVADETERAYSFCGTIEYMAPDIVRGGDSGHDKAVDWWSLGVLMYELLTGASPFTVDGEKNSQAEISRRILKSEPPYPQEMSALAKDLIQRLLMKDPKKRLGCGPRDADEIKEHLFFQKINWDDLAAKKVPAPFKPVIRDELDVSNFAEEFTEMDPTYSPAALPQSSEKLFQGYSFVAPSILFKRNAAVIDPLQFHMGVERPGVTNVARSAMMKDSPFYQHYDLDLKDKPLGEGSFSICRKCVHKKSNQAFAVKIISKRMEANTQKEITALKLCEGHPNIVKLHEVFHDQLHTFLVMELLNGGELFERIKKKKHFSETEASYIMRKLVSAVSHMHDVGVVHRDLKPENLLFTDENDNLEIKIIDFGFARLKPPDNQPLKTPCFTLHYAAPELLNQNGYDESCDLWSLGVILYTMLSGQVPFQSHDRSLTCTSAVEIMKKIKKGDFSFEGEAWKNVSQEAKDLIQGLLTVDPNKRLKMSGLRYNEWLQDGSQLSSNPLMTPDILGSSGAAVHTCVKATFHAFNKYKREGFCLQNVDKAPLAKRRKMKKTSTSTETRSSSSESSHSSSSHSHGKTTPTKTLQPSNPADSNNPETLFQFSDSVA
The target of experiment [9] is Ribosomal protein S6 kinase beta-1 (Homo sapiens, UniProt P23443).
Chain of Ribosomal protein S6 kinase beta-1 (P23443 whole entry): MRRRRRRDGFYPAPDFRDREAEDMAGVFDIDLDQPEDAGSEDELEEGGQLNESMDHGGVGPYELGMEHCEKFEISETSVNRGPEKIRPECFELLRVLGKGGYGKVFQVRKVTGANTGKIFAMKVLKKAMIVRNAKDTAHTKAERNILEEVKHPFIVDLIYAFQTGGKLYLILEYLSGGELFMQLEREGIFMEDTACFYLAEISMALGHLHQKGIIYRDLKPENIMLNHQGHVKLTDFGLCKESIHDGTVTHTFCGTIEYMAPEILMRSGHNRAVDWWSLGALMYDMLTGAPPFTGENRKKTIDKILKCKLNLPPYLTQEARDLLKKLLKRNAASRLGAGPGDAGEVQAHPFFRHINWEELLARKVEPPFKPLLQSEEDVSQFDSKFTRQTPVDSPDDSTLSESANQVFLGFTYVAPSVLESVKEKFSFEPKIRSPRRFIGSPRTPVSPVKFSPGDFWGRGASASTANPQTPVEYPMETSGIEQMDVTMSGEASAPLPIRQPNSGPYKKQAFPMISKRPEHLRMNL
Experiment [10] deals with T2, Tyrosine-protein kinase Tec (Homo sapiens, UniProt P42680).
T2 sequence (P42680 whole entry): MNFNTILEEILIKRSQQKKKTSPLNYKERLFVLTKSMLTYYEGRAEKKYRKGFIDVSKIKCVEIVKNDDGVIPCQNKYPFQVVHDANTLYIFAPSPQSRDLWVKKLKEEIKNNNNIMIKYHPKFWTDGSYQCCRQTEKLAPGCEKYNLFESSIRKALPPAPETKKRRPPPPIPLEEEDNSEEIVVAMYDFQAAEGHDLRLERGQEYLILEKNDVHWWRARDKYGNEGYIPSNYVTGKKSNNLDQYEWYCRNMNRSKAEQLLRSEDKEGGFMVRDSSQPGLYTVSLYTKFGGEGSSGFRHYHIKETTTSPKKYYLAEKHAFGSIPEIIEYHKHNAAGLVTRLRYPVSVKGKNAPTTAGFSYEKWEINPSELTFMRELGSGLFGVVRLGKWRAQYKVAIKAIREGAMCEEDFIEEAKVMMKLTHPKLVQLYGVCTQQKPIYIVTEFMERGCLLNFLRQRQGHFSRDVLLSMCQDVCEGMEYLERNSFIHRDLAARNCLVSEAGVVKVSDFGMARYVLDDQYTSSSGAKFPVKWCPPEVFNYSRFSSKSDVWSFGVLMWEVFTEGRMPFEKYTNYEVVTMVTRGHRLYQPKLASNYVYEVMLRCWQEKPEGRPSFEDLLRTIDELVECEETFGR

The target in experiment [11] is T3, Serine/threonine-protein kinase TAO1 (Homo sapiens, UniProt Q7L7X3).
T3 sequence (Q7L7X3 whole entry): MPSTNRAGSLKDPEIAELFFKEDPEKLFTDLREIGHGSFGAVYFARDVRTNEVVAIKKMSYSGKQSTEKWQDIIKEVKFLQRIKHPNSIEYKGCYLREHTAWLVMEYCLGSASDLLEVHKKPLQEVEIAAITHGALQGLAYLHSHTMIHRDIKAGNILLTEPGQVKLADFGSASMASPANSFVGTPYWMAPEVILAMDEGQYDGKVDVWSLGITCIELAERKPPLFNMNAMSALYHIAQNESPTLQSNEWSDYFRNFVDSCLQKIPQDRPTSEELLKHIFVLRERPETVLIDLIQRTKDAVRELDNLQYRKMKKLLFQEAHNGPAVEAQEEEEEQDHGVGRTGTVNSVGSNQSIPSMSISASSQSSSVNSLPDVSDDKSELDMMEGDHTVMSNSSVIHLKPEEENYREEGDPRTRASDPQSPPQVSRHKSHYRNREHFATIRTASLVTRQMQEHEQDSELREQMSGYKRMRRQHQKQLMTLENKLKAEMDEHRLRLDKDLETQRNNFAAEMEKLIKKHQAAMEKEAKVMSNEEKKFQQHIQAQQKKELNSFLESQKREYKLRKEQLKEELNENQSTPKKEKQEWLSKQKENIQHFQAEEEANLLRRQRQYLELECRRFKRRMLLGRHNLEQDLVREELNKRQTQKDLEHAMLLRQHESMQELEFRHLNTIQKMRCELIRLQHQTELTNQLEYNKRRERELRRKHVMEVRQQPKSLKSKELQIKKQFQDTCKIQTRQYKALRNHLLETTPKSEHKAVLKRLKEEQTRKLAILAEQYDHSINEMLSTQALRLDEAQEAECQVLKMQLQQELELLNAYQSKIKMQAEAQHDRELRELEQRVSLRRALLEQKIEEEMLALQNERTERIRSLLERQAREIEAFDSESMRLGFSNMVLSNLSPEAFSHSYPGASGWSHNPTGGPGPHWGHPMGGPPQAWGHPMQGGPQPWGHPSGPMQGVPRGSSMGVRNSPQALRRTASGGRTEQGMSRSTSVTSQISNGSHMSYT

The source made the active and inactive calls. Cut-off read from the data, not from the text of the source, for most assays here: actives have a measured Kd and inactives only a lower limit. Bounds are passed on as bounds.
Note: in the data inactive means no Kd found up to 30 µM.

Chain of Protein kinase C beta type (P05771 whole entry): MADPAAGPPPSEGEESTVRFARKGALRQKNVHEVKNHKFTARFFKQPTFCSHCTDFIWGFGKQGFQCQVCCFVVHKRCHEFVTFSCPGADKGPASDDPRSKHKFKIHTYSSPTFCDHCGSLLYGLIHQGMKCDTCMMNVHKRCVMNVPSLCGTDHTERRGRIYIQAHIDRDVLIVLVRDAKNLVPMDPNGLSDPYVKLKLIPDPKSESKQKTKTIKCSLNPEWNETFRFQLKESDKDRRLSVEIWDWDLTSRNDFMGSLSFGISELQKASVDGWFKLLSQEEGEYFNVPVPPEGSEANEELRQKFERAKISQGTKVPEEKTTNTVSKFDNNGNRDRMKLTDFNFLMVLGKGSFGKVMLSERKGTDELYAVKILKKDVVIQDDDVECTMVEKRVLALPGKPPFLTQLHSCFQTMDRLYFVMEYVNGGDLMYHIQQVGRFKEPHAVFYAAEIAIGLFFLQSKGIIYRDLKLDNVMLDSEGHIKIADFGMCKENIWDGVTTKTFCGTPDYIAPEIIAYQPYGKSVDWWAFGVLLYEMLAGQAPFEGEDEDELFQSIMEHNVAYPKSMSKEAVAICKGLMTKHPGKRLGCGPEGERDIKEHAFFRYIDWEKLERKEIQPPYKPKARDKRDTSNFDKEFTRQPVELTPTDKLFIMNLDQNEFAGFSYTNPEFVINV
Chain of Casein kinase II subunit alpha' (P19784 whole entry): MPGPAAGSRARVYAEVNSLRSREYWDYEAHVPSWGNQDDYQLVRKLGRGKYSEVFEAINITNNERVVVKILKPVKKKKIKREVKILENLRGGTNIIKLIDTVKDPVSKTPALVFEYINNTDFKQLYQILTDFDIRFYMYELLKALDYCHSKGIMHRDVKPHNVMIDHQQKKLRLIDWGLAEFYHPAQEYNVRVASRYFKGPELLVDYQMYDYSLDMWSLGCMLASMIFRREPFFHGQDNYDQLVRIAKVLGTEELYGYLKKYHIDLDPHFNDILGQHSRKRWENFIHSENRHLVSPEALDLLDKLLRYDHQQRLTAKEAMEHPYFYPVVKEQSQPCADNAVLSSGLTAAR
Chain of Dual specificity protein kinase CLK1 (P49759 whole entry): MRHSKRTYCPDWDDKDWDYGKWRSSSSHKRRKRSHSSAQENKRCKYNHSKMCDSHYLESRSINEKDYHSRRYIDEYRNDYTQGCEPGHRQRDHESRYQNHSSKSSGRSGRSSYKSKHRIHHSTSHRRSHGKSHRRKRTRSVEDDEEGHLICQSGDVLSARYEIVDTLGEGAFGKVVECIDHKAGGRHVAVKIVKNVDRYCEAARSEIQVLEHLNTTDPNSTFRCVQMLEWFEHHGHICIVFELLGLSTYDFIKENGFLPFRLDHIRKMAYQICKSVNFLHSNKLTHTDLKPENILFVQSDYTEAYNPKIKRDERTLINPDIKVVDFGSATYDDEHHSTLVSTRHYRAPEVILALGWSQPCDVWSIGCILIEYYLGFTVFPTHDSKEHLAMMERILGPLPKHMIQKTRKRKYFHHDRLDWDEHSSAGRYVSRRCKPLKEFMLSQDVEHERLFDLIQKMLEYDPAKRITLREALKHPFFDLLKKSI

Turning to `CCN(CCCOc1ccc2c(Nc3cc(CC(=O)Nc4cccc(F)c4)n[nH]3)ncnc2c1)CCOP(=O)(O)O` [BARASERTIB], the Kd (in general, the constant that tells how readily two partners part at equilibrium) in [1] is > 30 µM (inactive); in [2], > 30 µM (inactive); in [3] it was 1.95 µM; in experiment [4], > 30 µM (inactive); on Ephrin type-A receptor 7 it was > 30 µM (inactive); in experiment [5], > 30 µM (inactive). Further, the Kd in experiment [6], in [7], in experiment [8], in experiment [9] and in experiment [10] was > 30 µM (inactive) in each case.
In the case of `C=CCn1c(=O)c2cnc(Nc3ccc(N4CCN(C)CC4)cc3)nc2n1-c1cccc(C(C)(C)O)n1` [ADAVOSERTIB], the Kd in experiment [1] is > 30 µM (inactive); in [2], > 30 µM (inactive); in experiment [3] it was 0.412 µM (active); in [4], > 30 µM (inactive); on Ephrin type-A receptor 7, > 30 µM (inactive); in [5] it was 0.052 µM (active). In addition, the Kd in experiment [6], in experiment [7], in experiment [8], in [9] and in experiment [10] was > 30 µM (inactive) each time.
With `COc1cc2c(N3CCN(C(=O)Nc4ccc(OC(C)C)cc4)CC3)ncnc2cc1OCCCN1CCCCC1` [TANDUTINIB], the Kd in [4] and in [6] was > 30 µM (inactive) in each case.
For `O=c1[nH]c([C@@H]2CCCN2)nc2c1oc1ccc(Cl)cc12`, the Kd in experiment [1] is > 30 µM (inactive); in experiment [3], 0.022 µM (active); in experiment [4], > 30 µM (inactive); on Ephrin type-A receptor 7 it was > 30 µM (inactive); in experiment [5], > 30 µM (inactive); in experiment [6], > 30 µM (inactive). The Kd in experiment [7], in experiment [8], in experiment [11] and in experiment [10] was > 30 µM (inactive) in each case.
As to `COc1cc2c(Oc3ccc4[nH]c(C)cc4c3F)ncnc2cc1OCCCN1CCCC1` [CEDIRANIB], the Kd in experiment [4] and in experiment [6] was > 30 µM (inactive) throughout.
Regarding `CN1CCN(c2nc(C3=C(c4c[nH]c5ccccc45)C(=O)NC3=O)c3ccccc3n2)CC1` [SOTRASTAURIN], the Kd (in [1]; in experiment [2]; in experiment [3]; in experiment [4]; at Ephrin type-A receptor 7; in experiment [5]) was > 30 µM (inactive) each time. The Kd in [7], in experiment [8], in experiment [9] and in experiment [10] was > 30 µM (inactive) throughout.
Take `CCN1CCN(Cc2ccc(Nc3ncc(F)c(-c4cc(F)c5nc(C)n(C(C)C)c5c4)n3)nc2)CC1` [ABEMACICLIB]: the Kd is > 30 µM (inactive) in experiment [1]; 0.007 µM (active) in experiment [2]; 0.019 µM (active) in [3]; > 30 µM (inactive) in [4]; > 30 µM (inactive) in [5]; 1.62 µM (active) in experiment [6]. The Kd in experiment [7], in experiment [8], in experiment [9] and in [10] was > 30 µM (inactive) each time.
Turning to `Cn1cnc2c(F)c(Nc3ccc(Br)cc3Cl)c(C(=O)NOCCO)cc21` [SELUMETINIB], the Kd in experiment [4] and in [6] was > 30 µM (inactive) each time.
In the case of `CN(C)C/C=C/C(=O)Nc1cc2c(Nc3ccc(F)c(Cl)c3)ncnc2cc1O[C@H]1CCOC1` [AFATINIB], the Kd in experiment [4] and in [6] was > 30 µM (inactive) each time.
For the compound `CN(c1ncccc1CNc1nc(Nc2ccc3c(c2)CC(=O)N3)ncc1C(F)(F)F)S(C)(=O)=O` [PF-00562271], the Kd in experiment [1] is > 30 µM (inactive); in experiment [2] it was 0.363 µM (active); in experiment [3] it was 0.998 µM (active); in experiment [4] it was > 30 µM (inactive); in [5], > 30 µM (inactive); in [6], > 30 µM (inactive). Further, the Kd in experiment [10] was > 30 µM (inactive).
As to `CC1(C)CNc2cc(NC(=O)c3cccnc3NCc3ccncc3)ccc21` [MOTESANIB], the Kd in experiment [4] and in experiment [6] was > 30 µM (inactive) each time.
As for `C[C@@]1(C(=O)Nc2ccc(F)nc2)CCCN1c1nc(Nc2cc(C3CC3)n[nH]2)c2cccn2n1` [BMS-754807], the Kd in experiment [4] and in experiment [6] was > 30 µM (inactive) in each case.
For `O=S(=O)(c1cccc2cnccc12)N1CCCNCC1` [FASUDIL], the Kd was > 30 µM (inactive) in experiment [1]; 0.152 µM in experiment [2]; > 30 µM (inactive) in experiment [3]; > 30 µM (inactive) in experiment [4]; > 30 µM (inactive) on Ephrin type-A receptor 7; > 30 µM (inactive) in experiment [5]. The Kd in experiment [6], in experiment [7] and in [10] was > 30 µM (inactive) throughout.
Regarding `C[C@]1(O)C[C@@H](c2nc(-c3ccc4ccc(-c5ccccc5)nc4c3)c3c(N)nccn32)C1` [LINSITINIB], the Kd (in experiment [1]; in [2]; in experiment [3]; in [4]; on Ephrin type-A receptor 7; in experiment [5]) was > 30 µM (inactive) in each case. Besides, the Kd in experiment [6], in experiment [7] and in experiment [10] was > 30 µM (inactive) in each case.
As for `Cn1c(=O)n(-c2ccc(C(C)(C)C#N)cc2)c2c3cc(-c4cnc5ccccc5c4)ccc3ncc21` [DACTOLISIB], the Kd (in experiment [1]; in experiment [2]; in [3]; in [4]; at Ephrin type-A receptor 7; in [5]) was > 30 µM (inactive) in each case. Also, the Kd in [6], in [7], in experiment [8] and in [10] was > 30 µM (inactive) in each case.

(Values after ChEMBL document CHEMBL3991601, “The target landscape of clinical kinase drugs” (Science, 2017).)
